# Where no end group is shown, it is not given here.
# Target: T1, mAChR-Gi2 coupling (Bos taurus, UniProt A7MBH9)
# T1 construct: trimeric Gi2 purified from bovine spleen to homogeneity; from tissue; host or cells: bovine spleen (Gi2); porcine brain (mAChR)
# Assay: GTPγS binding rate in mAChR-Gi2 reconstituted phospholipid vesicles
# Format: biochemical, porcine mAChR, bovine Gi2
# Conditions: 30 μM ACGi2, 10 mM acetylcholine; read-out: inhibition of acetylcholine-induced Gi2 activation
# Method: Materials and Methods The in vitro assays described below utilize the couplone portion of each of a number of G-coupled receptors, instead of an intact receptor molecule, as a means for activating the corresponding anticouplone or intact G-protein. […]
# GTPγS binding Assay--GTPγS binding to G proteins was assayed at 37° C. in 20 mM Hepes/NaOH buffer (pH 7.4) containing 130 μM MgCl2, 110 μM EDTA and 60 nM [^35 S]GTPγS, as described previously (Okamoto et al., 1990). […] The total amount of G protein was measured as maximal GTPγS binding at room temperature, as described (Okamoto et al., Cell 67:723-730, 1991a). […] Thus, the apparent first-order rate constant for GTPγS binding (kapp), which is equal to the slope of the tangent to the GTPγS binding curve at time 0 and represents the actual GTPγS binding rate, was calculated from this equation. […]
# T1 sequence (A7MBH9 2-355 limits assumed): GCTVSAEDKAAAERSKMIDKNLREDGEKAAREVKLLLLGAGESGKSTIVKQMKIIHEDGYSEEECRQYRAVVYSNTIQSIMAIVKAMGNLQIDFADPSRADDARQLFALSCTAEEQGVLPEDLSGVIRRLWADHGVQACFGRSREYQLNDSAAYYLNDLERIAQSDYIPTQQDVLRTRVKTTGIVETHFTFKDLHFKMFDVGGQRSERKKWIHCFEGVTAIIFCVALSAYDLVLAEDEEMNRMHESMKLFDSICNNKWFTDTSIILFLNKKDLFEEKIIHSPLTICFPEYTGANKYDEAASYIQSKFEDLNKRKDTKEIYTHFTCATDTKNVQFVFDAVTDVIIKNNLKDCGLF
# T1 sequence (P62871 2-340 partner limits assumed): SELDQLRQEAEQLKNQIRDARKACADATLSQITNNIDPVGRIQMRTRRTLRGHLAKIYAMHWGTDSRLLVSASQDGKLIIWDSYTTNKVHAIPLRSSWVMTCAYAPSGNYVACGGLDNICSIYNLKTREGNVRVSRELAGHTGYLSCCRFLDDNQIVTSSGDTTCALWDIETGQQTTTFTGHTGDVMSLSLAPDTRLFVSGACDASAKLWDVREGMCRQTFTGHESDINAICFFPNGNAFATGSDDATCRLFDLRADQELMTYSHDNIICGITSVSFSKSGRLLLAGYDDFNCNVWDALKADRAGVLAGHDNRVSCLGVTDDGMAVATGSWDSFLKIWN
# T1 sequence (P63212 2-68 partner limits assumed): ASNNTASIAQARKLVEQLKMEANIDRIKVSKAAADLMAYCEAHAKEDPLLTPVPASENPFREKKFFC
sequence,measurement,value
"DAVTDVIIKNNLKDC [ACGi2, DAVTDVIIKNNLKDC]",inhibition at 30 µM,~75%

# Reference: US5559209A, “Regulator regions of G proteins” (The General Hospital Corporation, priority 1993, dated 1996)
